{"source": "ChEMBL document CHEMBL1255477", "about": "“In vitro properties of BAL30072, a novel siderophore sulfactam with activity against multiresistant gram-negative bacilli” (Antimicrob Agents Chemother, 2010)", "key": {"[1]": {"test_system": "Acinetobacter junii", "test": "Antimicrobial activity against Acinetobacter junii 15218 assessed as appearance of colony at 4 times MIC concentration", "assay_type": "functional"}, "[2]": {"test_system": "Klebsiella pneumoniae", "test": "Antimicrobial activity against Klebsiella pneumoniae 1338665 assessed as appearance of colony at 4 times MIC concentration", "assay_type": "functional, organism-based"}, "[3]": {"test_system": "Pseudomonas aeruginosa", "test": "Microbicidal activity against Pseudomonas aeruginosa (560546)9 M.P. selected after MIC of compound exposure", "assay_type": "functional"}, "[4]": {"test_system": "Enterobacter cloacae", "test": "Antimicrobial activity against Enterobacter cloacae S9369 assessed as number of passages required for MIC to rise above 4 times original MIC", "assay_type": "functional"}, "[5]": {"test_system": "Pseudomonas aeruginosa", "test": "Antimicrobial activity against fpvA, fpvB, fptA and pirA gene deficient Pseudomonas aeruginosa 860 by broth dilution method", "assay_type": "functional"}, "[6]": {"test_system": "Pseudomonas aeruginosa", "test": "Antimicrobial activity against fpvA deficient Pseudomonas aeruginosa (560546)9 M.P. by broth dilution method", "assay_type": "functional"}, "[7]": {"test_system": "Pseudomonas aeruginosa", "test": "Microbicidal activity against Pseudomonas aeruginosa BA selected after 4 times MIC compound exposure", "assay_type": "functional"}, "[8]": {"test_system": "Pseudomonas aeruginosa", "test": "Antimicrobial activity against Pseudomonas aeruginosa 527 assessed as number of passages required for MIC to rise above 4 times original MIC", "assay_type": "functional"}, "[9]": {"test_system": "Escherichia coli", "test": "Antimicrobial activity against Escherichia coli K802N harboring beta-lactamase TEM-3 by broth dilution method", "assay_type": "functional"}, "[10]": {"test_system": "Pseudomonas aeruginosa", "test": "Antimicrobial activity against pfeA deficient Pseudomonas aeruginosa 134 by broth dilution method", "assay_type": "functional"}, "[11]": {"test_system": "Burkholderia sp.", "test": "Antimicrobial activity against Burkholderia sp. by broth dilution method", "assay_type": "functional"}, "[12]": {"test_system": "Escherichia coli", "test": "Antimicrobial activity against Escherichia coli W3110 by broth dilution method", "assay_type": "functional"}, "[13]": {"test_system": "Pseudomonas aeruginosa", "test": "Antimicrobial activity against Pseudomonas aeruginosa HPA10586 by broth dilution method", "assay_type": "functional"}, "[14]": {"test_system": "Providencia stuartii", "test": "Antimicrobial activity against Providencia stuartii by broth dilution method", "assay_type": "functional"}, "[15]": {"test_system": "Acinetobacter junii", "test": "Antimicrobial activity against Acinetobacter junii 15218 by broth dilution method", "assay_type": "functional"}, "[16]": {"test_system": "Citrobacter freundii", "test": "Antimicrobial activity against Citrobacter freundii by broth dilution method", "assay_type": "functional"}, "[17]": {"test_system": "Acinetobacter baumannii", "test": "Antimicrobial activity against Acinetobacter baumannii HPA 4737 harboring beta-lactamase OXA-26 by broth dilution method", "assay_type": "functional"}, "[18]": {"test_system": "Pseudomonas aeruginosa", "test": "Antimicrobial activity against Pseudomonas aeruginosa 860 by broth dilution method", "assay_type": "functional"}, "[19]": {"test_system": "Pseudomonas aeruginosa", "test": "Antimicrobial activity against Pseudomonas aeruginosa BA assessed as appearance of colony at 4 times MIC concentration", "assay_type": "functional"}, "[20]": {"test_system": "Pseudomonas aeruginosa", "test": "Antimicrobial activity against Pseudomonas aeruginosa BA(C2-107) mutant assessed as doubling time", "assay_type": "functional"}, "[21]": {"test_system": "Enterobacter cloacae", "test": "Antimicrobial activity against Enterobacter cloacae S4741B by broth dilution method", "assay_type": "functional"}, "[22]": {"test_system": "Stenotrophomonas maltophilia", "test": "Antimicrobial activity against Stenotrophomonas maltophilia B715 harboring beta-lactamase L1and L2 by broth dilution method", "assay_type": "functional"}, "[23]": {"test_system": "Pseudomonas aeruginosa", "test": "Antimicrobial activity against Pseudomonas aeruginosa 1937E harboring beta-lactamase PSE-4 and class C enzymes by broth dilution method", "assay_type": "functional"}, "[24]": {"test_system": "Stenotrophomonas maltophilia", "test": "Microbicidal activity against Stenotrophomonas maltophilia 1AC736 selected after 2 times MIC compound exposure", "assay_type": "functional"}, "[25]": {"test_system": "Klebsiella aerogenes", "test": "Antimicrobial activity against Enterobacter aerogenes by broth dilution method", "assay_type": "functional"}, "[26]": {"test_system": "Enterobacter cloacae", "test": "Antimicrobial activity against Enterobacter cloacae S9369 selected after MIC of compound exposure by broth dilution method", "assay_type": "functional"}, "[27]": {"test_system": "Enterobacter cloacae", "test": "Antimicrobial activity against Enterobacter cloacae S4741B assessed as appearance of colony at 4 times MIC concentration", "assay_type": "functional"}, "[28]": {"test_system": "Pseudomonas aeruginosa", "test": "Antimicrobial activity against Pseudomonas aeruginosa 527 assessed as appearance of colony at 4 times MIC concentration", "assay_type": "functional"}, "[29]": {"test_system": "Stenotrophomonas maltophilia", "test": "Antimicrobial activity against Stenotrophomonas maltophilia by broth dilution method", "assay_type": "functional"}, "[30]": {"test_system": "Enterobacter cloacae", "test": "Antimicrobial activity against Enterobacter cloacae S9369 assessed as appearance of colony at 4 times MIC concentration", "assay_type": "functional, organism-based"}, "[31]": {"test_system": "Enterobacter cloacae", "test": "Antimicrobial activity against Enterobacter cloacae S4741B assessed as number of passages required for MIC to rise above 4 times original MIC", "assay_type": "functional"}, "[32]": {"test_system": "Pseudomonas aeruginosa", "test": "Antimicrobial activity against mexAB-oprM protein and mexCD-oprJ deficient Pseudomonas aeruginosa PAO238 by broth dilution method", "assay_type": "functional"}, "[33]": {"test_system": "Pseudomonas aeruginosa", "test": "Antimicrobial activity against Pseudomonas aeruginosa 527 by broth dilution method", "assay_type": "functional"}, "[34]": {"test_system": "Pseudomonas aeruginosa", "test": "Antimicrobial activity against Pseudomonas aeruginosa BA assessed as doubling time", "assay_type": "functional"}, "[35]": {"test_system": "Proteus vulgaris", "test": "Antimicrobial activity against Proteus vulgaris by broth dilution method", "assay_type": "functional"}}, "note": "Activity calls are given as the source filed them. The rule behind the calls is not given here."}
{"compound": "C[C@@H](O)[C@H]1C(=O)N2C(C(=O)O)=C(S[C@@H]3CN[C@H](C(=O)N(C)C)C3)[C@H](C)[C@H]12", "note": "[MEROPENEM]", "values": [{"measurement": "Activity", "setting": "[1]", "result": "Active"}, {"measurement": "Activity", "setting": "[2]", "result": "inactive"}, {"measurement": "MBC", "setting": "[3]", "result": 2, "unit": "µg/mL"}, {"measurement": "Activity", "setting": "[4]", "result": 9, "unit": "passages"}, {"measurement": "MIC", "setting": "[5]", "result": 1, "unit": "µg/mL"}, {"measurement": "MIC", "setting": "[6]", "result": 2, "unit": "µg/mL"}, {"measurement": "MBC", "setting": "[7]", "result": 2, "unit": "µg/mL"}, {"measurement": "Activity", "setting": "[8]", "result": 3, "unit": "passages"}, {"measurement": "MIC", "setting": "[9]", "result": 16, "unit": "µg/mL"}, {"measurement": "MIC", "setting": "[10]", "result": 1, "unit": "µg/mL"}, {"measurement": "MIC50", "setting": "[11]", "result": 2, "unit": "µg/mL"}, {"measurement": "MIC90", "setting": "[11]", "result": 4, "unit": "µg/mL"}, {"measurement": "MIC", "setting": "[12]", "result": 0.25, "unit": "µg/mL"}, {"measurement": "MIC", "setting": "[13]", "result": "> 128", "unit": "µg/mL"}, {"measurement": "MIC50", "setting": "[14]", "result": 0.25, "unit": "µg/mL"}, {"measurement": "MIC90", "setting": "[14]", "result": "> 32", "unit": "µg/mL"}, {"measurement": "MIC", "setting": "[15]", "result": 0.25, "unit": "µg/mL"}, {"measurement": "MIC", "setting": "[16]", "result": "≤ 0.06", "unit": "µg/mL"}, {"measurement": "MIC50", "setting": "[16]", "result": "≤ 0.06", "unit": "µg/mL"}, {"measurement": "MIC90", "setting": "[16]", "result": 0.25, "unit": "µg/mL"}, {"measurement": "MIC", "setting": "[17]", "result": "> 32", "unit": "µg/mL"}, {"measurement": "MIC", "setting": "[18]", "result": 4, "unit": "µg/mL"}, {"measurement": "Activity", "setting": "[19]", "result": 1, "unit": "frequency"}, {"measurement": "Time", "setting": "[20]", "result": 4.1, "unit": "h"}, {"measurement": "MIC", "setting": "[21]", "result": 1, "unit": "µg/mL"}, {"measurement": "MIC", "setting": "[22]", "result": "> 32", "unit": "µg/mL"}, {"measurement": "MIC", "setting": "[23]", "result": 1, "unit": "µg/mL"}, {"measurement": "MBC", "setting": "[24]", "result": 16, "unit": "µg/mL"}, {"measurement": "MIC50", "setting": "[25]", "result": 0.25, "unit": "µg/mL"}, {"measurement": "MIC90", "setting": "[25]", "result": 4, "unit": "µg/mL"}, {"measurement": "MBC", "setting": "[26]", "result": 2, "unit": "µg/mL"}, {"measurement": "Activity", "setting": "[27]", "result": "Active"}, {"measurement": "Activity", "setting": "[28]", "result": "inactive"}, {"measurement": "MIC50", "setting": "[29]", "result": 8, "unit": "µg/mL"}, {"measurement": "MIC90", "setting": "[29]", "result": "> 32", "unit": "µg/mL"}, {"measurement": "Activity", "setting": "[30]", "result": "Active"}, {"measurement": "Activity", "setting": "[31]", "result": 7, "unit": "passages"}, {"measurement": "MIC", "setting": "[32]", "result": 0.5, "unit": "µg/mL"}, {"measurement": "MIC", "setting": "[33]", "result": 2, "unit": "µg/mL"}, {"measurement": "Time", "setting": "[34]", "result": 1.5, "unit": "h"}, {"measurement": "MIC50", "setting": "[35]", "result": 0.125, "unit": "µg/mL"}, {"measurement": "MIC90", "setting": "[35]", "result": 0.5, "unit": "µg/mL"}]}
